# Tests used:
# [1] = molecular target: T1, chymotrypsin-like (CT-L) activity of the 20S proteasome (Homo sapiens, UniProt P20618+P28074); assay: 20S proteasome inhibition assay (Proteasome-Glo Chymotrypsin-Like); format: biochemical; settings: n ≥ 3, SD <20% of the mean, read-out: IC50 toward Chymotrypsin-like (CT-L)
# T1 construct: purchased R&D systems, Minneapolis, MN, USA
# Description: The 20S proteasome inhibition assay was performed using the Proteasome-Glo™ Chymotrypsin-Like Assay kit (Promega, Alexandria, NSW, Australia). Suc-LLVY-aminoluciferin is a substate that can be cleaved by the 20S proteasome, release the […] (aminoluciferin) and allow the luciferase reaction to produce light. Gradient concentration of tested compounds and the purified 20S proteasome enzyme (R&D systems, Minneapolis, MN, USA) were successively added into a transparent 96-well plate and mixed thoroughly. Then, 50 µL of a […] reagent was added. Gently mix contents with a plate shaker at 300 to 500 rpm for 30 s. Incubate at room temperature for an hour. The luminescence was recorded via the Tecan Spark multimode microplate.
# [2] = molecular target: T2, CD13 from Porcine Kidney (Sus scrofa, UniProt P15145); assay: CD13 inhibition assay (porcine aminopeptidase, L-leucine-p-nitroanilide); format: biochemical; settings: mean ± SD, n ≥ 3; read-out: IC50 toward CD13 from Porcine Kidney
# T2 construct: purchased Sigma Chemical Co., St. Louis, MO, USA
# T2 sequence (P15145 whole entry): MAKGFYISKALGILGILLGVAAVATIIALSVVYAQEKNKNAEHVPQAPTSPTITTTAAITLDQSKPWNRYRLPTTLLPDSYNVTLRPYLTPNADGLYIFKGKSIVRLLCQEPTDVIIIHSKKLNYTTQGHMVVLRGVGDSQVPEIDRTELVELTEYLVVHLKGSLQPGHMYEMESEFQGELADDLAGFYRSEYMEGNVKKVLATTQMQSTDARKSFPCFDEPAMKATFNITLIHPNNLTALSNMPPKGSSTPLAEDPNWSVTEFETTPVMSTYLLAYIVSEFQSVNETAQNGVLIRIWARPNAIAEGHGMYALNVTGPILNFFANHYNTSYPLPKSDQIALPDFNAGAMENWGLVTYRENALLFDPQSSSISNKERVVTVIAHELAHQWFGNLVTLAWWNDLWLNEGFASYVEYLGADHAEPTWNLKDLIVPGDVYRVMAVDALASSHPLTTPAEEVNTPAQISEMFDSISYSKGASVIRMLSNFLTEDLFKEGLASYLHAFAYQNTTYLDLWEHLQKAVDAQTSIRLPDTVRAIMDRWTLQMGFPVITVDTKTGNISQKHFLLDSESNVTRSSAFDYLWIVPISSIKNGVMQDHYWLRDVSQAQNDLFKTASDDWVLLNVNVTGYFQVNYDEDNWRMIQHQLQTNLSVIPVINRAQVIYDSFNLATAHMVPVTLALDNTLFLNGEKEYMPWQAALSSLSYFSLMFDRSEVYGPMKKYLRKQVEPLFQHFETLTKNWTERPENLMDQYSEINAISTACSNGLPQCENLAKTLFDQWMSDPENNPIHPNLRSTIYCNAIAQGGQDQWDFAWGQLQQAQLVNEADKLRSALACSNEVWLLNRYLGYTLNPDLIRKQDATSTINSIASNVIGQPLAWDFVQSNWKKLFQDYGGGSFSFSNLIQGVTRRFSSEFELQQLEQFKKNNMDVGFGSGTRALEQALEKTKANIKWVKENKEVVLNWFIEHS
# Description: (§1) L-leucine-p-nitroanilide can be degraded by recombinant human aminopeptidase (R&D systems) or procine aminopeptidase (Sigma Chemical Co., St. Louis, MO, USA) and produce light absorption at 405 nm. The CD13 inhibitory activity of synthetic compounds was identified according to the degree of degradation of L-leucine-p-nitroanilide. L-leucine-p-nitroanilide was dissolved in DMSO and mixed with tested compounds in a transparent 96-well plate; then, aminopeptidase was added using phosphate solution (pH 7.2) as the assay buffer. After incubation at 37 °C for 30 min, the absorption was detected under a 405 nm wavelength via Tecan Spark multimode microplate.
# [3] = tested on: HEK293; assay: Cell proliferation analysis (MTT), normal cells; format: cell-based; settings: Homo sapiens, non-malignant cell line, 48 h, read-out: Anti-proliferative activity IC50, HEK293
# Description: (§2) All tumor cell lines in the current research were grown in a certain growth medium containing 10% FBS and 1% (v/v/v) penicillin–streptomycin–amphotericin at 37 °C in 5% CO2. Cells were seeded into 96-well plates at a density of 8 × 10^3 cells per well for tumor adherent cells and 2 × 10^4 cells per well for tumor-suspended cells in a final volume of 100 μL. After 12 h, 100 μL of various concentrations of compounds was added to each and incubated for 48 h. A 0.5% MTT solution was added per well before the intermixture was incubated for another 4 h, and formazan formed from MTT was extracted by adding […] of DMSO rocking for 15 min. Absorbance was measured at 570 nm using a Spark multimode microplate from Tecan. The IC50 values were calculated according to the inhibition ratios.
# [4] = tested on: HL-7702; assay: Cell proliferation analysis (MTT), normal cells; format: cell-based; settings: Homo sapiens, L02, non-malignant cell line, 48 h, read-out: Anti-proliferative activity IC50, HL-7702
# Description: as §2
# [5] = molecular target: T3, Human CD13 (Homo sapiens, UniProt P15144); assay: CD13 inhibition assay (recombinant human aminopeptidase, L-leucine-p-nitroanilide); format: biochemical; settings: mean ± SD, n ≥ 3; read-out: IC50 toward Human CD13
# T3 construct: purchased R&D systems
# T3 sequence (P15144 whole entry): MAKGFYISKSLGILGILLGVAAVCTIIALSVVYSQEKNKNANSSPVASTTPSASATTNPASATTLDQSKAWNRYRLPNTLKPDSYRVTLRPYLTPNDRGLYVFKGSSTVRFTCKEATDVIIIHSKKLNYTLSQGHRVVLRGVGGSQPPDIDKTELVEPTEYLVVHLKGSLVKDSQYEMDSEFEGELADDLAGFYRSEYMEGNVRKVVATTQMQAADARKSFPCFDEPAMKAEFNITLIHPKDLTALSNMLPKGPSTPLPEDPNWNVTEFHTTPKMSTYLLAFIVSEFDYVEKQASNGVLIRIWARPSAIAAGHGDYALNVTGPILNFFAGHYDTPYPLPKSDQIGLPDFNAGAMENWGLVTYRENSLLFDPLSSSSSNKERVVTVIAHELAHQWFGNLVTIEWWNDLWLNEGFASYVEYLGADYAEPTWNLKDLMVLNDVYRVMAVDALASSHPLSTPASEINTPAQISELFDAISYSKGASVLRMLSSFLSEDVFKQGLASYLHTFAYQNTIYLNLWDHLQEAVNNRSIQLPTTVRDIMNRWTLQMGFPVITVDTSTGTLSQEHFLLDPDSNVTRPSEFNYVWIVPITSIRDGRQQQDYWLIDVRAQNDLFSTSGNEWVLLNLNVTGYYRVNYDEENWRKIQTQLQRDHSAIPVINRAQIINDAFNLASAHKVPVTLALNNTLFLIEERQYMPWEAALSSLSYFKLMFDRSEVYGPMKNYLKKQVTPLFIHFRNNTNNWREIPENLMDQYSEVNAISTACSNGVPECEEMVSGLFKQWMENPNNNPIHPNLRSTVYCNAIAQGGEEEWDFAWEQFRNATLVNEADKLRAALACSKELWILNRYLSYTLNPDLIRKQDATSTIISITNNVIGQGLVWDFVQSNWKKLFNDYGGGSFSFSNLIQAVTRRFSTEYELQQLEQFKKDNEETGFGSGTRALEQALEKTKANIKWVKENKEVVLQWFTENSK
# Description: as §1
# [6] = tested on: U251; assay: Cell proliferation analysis (MTT); format: cell-based; settings: Homo sapiens, U-251, 48 h, read-out: Anti-proliferative activity IC50, U251
# Description: as §2
# [7] = tested on: KG1; assay: Cell proliferation analysis (MTT); format: cell-based; settings: Homo sapiens, KG-1, 48 h, read-out: Anti-proliferative activity IC50, KG1
# Description: as §2
# [8] = tested on: RPMI-8266; assay: Cell proliferation analysis (MTT); format: cell-based; settings: RPMI8266, 48 h, read-out: Anti-proliferative activity IC50, RPMI-8266
# Description: as §2
# [9] = tested on: PC3; assay: Cell proliferation analysis (MTT); format: cell-based; settings: Homo sapiens, PC-3, 48 h, read-out: Anti-proliferative activity IC50, PC3
# Description: as §2
# [10] = tested on: A2780; assay: Cell proliferation analysis (MTT); format: cell-based; settings: Homo sapiens, 48 h, read-out: Anti-proliferative activity IC50, A2780
# Description: as §2
# [11] = tested on: HEL; assay: Cell proliferation analysis (MTT); format: cell-based; settings: Homo sapiens, 48 h, read-out: Anti-proliferative activity IC50, HEL
# Description: as §2
# [12] = tested on: Hela; assay: Cell proliferation analysis (MTT); format: cell-based; settings: Homo sapiens, 48 h, read-out: Anti-proliferative activity IC50, Hela
# Description: as §2
# [13] = tested on: MDA-MB-231; assay: Cell proliferation analysis (MTT); format: cell-based; settings: Homo sapiens, 48 h, read-out: Anti-proliferative activity IC50, MDA-MB-231
# Description: as §2
# [14] = tested on: U266; assay: Cell proliferation analysis (MTT); format: cell-based; settings: Homo sapiens, U-266, 48 h, read-out: Anti-proliferative activity IC50, U266
# Description: as §2
# [15] = tested on: HCT116; assay: Cell proliferation analysis (MTT); format: cell-based; settings: Homo sapiens, HCT-116, 48 h, read-out: Anti-proliferative activity IC50, HCT116
# Description: as §2
# [16] = tested on: MM.1S; assay: Cell proliferation analysis (MTT); format: cell-based; settings: Homo sapiens, MM1.S, 48 h, read-out: Anti-proliferative activity IC50, MM.1S
# Description: as §2
# [17] = tested on: HT-29; assay: Cell proliferation analysis (MTT); format: cell-based; settings: Homo sapiens, 48 h, read-out: Anti-proliferative activity IC50, HT-29
# Description: as §2
# [18] = tested on: SP2; assay: Cell proliferation analysis (MTT); format: cell-based; settings: 48 h, read-out: Anti-proliferative activity IC50, SP2
# Description: as §2
# [19] = tested on: ARP-1; assay: Cell proliferation analysis (MTT); format: cell-based; settings: 48 h, read-out: Anti-proliferative activity IC50, ARP-1
# Description: as §2
# [20] = Acute toxicity experiment (single oral dose); format: in vivo; settings: for Survival Animals: 7 days, n = 10
# From the text: The mouse mortality was monitored daily and recorded up to 7 days after treatment.
compound,measurement,setting,value
"CC(C)C[C@H](NC(=O)[C@@H](O)[C@H](N)Cc1ccccc1)B1OC(=O)C(CC(=O)O)(CC(=O)O)O1 [BC-05, 2,2′-(2-((R)-1-((2S,3R)-3-amino-2-hydroxy-4-phenylbutanamido)-3-methylbutyl)-5-oxo-1,3,2-dioxaborolane-4,4-diyl)diacetic acid]",IC50,[1],1.39 µM
same,IC50,[2],0.65 ± 0.05 µM
same,IC50,[3],> 200 µM
same,IC50,[4],> 200 µM
same,IC50,[5],0.13 ± 0.01 µM
same,IC50,[6],47.5 ± 11.9 µM
same,IC50,[7],41.6 ± 4.11 µM
same,IC50,[8],15.1 ± 2.23 µM
same,IC50,[9],47.4 ± 4.22 µM
same,IC50,[10],33.7 ± 0.99 µM
same,IC50,[11],13.3 ± 2.81 µM
same,IC50,[12],83.1 ± 8.79 µM
same,IC50,[13],13.3 ± 0.49 µM
same,IC50,[14],13.7 ± 1.43 µM
same,IC50,[15],86.7 ± 7.34 µM
same,IC50,[16],1.53 ± 0.24 µM
same,IC50,[17],12.5 ± 1.21 µM
same,IC50,[18],14.7 ± 4.91 µM
same,IC50,[19],10.2 ± 1.23 µM
same,LD50 at 7 days,"[20]; both sexes, Kunming, mouse, in vivo, single oral dose, healthy mice",400 µmol/kg
same,Survival Animals,[20]; single oral 0.27 mmol/kg,10/10
same,Survival Animals,[20]; single oral 0.36 mmol/kg,6/10
same,Survival Animals,[20]; single oral 0.49 mmol/kg,4/10
same,Survival Animals,[20]; single oral 0.65 mmol/kg,1/10
same,Survival Animals,[20]; single oral 0.86 mmol/kg,0/10

# Reference: paper PMC10489073 (Molecules, 2023)
